tested on: Cryptosporidium parvum; experiment: MMV: Cryptosporidium parvum oocysts (Iowa Strain) were prepared for use by treatment with 10 mM HCl (37 degrees C, 10 min) followed by 2 mM sodium taurocholate in phosphate-buffered saline (PBS) with Ca2+ and Mg2+ (16 degrees C, 10 min) in order to stimulate excystation. The high-throughput screen was carried out by inoculating >90% confluent human ileocecal adenocarcinoma (HCT-8) cells (ATCC) with ~5.5 x 10^3 primed oocysts per well. Experimental compounds or DMSO (vehicle) were added three hours after infection, and cells were incubated for 48 hours.; type: functional

Row | SMILES | Inhibition
1 | O=C(Nc1ccc(Cl)c(Cl)c1)Nc1ccc(Cl)c(Cl)c1 | 79.74%
2 | COc1ccc(-c2cc3c(nn2)-c2ccccc2C3=O)cc1 | -19.28%
3 | COc1ccc(C2c3ccc4ccccc4c3Oc3ncn(CCCN(C)C)c(=N)c32)cc1 (stereo unspecified) | 9.024%
4 | Nc1nc(Nc2cccc(F)c2)nc2ccccc12 | 22.76%
5 | COc1ccc(/C=C2/SC(=Nc3ccccc3)NC2=O)cc1 | 35.48%
6 | c1ccc(/C2=N/c3ccccc3/N=C(/c3ccccc3)c3ccccc32)cc1 | 8.997%
7 | COc1ccc(-c2nc(N3CCN(C(=O)C4CCCCC4)CC3)c3c4c(sc3n2)CCCC4)cc1 | -3.496%
8 | O=C(NC1CCN(Cc2ccccc2)CC1)c1cc2nc(-c3ccc(Cl)s3)cc(C(F)(F)F)n2n1 | -21.67%
9 | Cc1sc(NC(=O)c2ccccc2)c(C(c2cccs2)N2CCN(c3ccccc3)CC2)c1C (stereo unspecified) | -51.35%
10 | CCOC(=O)c1c(C)n(-c2ccccc2)c2ccc(OC(=O)c3cc(OC)c(OC)c(OC)c3)cc12 | 4.591%
11 | COc1cc(C(=O)Nc2nc3c(cc4c5c(cccc53)CC4)s2)cc(OC)c1OC | -26.05%
12 | COc1ccc(CCN2C(=O)c3[nH]nc(-c4cc(Cl)c(C)cc4O)c3C2c2ccccc2F)cc1 (stereo unspecified) | 10.68%
13 | N#Cc1nc(Cc2cccc3ccccc23)oc1N1CCN(C(c2ccccc2)c2ccccc2)CC1 | -4.219%
14 | COc1ccc(C2c3ccc4ccccc4c3Oc3ncn(CCCn4ccnc4)c(=N)c32)cc1OC (stereo unspecified) | 5.542%
15 | CN(N=O)C1=C(NC2CCCCC2)C(=O)c2ccccc2C1=O | -6.459%
16 | CCOc1ccc(N2C(N)=NC(N)=NC2(C)C)cc1.Cl | -26.74%
17 | COc1cccc(Nc2nc(N)c3ccccc3n2)c1.Cl | 27.99%
18 | Cc1ccc(C(=O)c2oc3ccc4c(C)cc(=O)oc4c3c2C)cc1 | 28.07%
19 | COc1ccc(CN2CCCC(C(=O)c3ccc(C(F)(F)F)cc3)C2)c(O)c1 (stereo unspecified) | -4.732%
20 | CCCCCCc1cc2cc(-c3csc(C=Cc4ccccc4)n3)c(=O)oc2cc1O | 10.86%
21 | O=C(CCl)NCCOc1ccc(Cl)cc1Cl | 7.535%
22 | Oc1ccc(-c2nc(-c3ccc4oc5ccc(-c6[nH]c(-c7ccc(O)cc7)nc6-c6ccccc6)cc5c4c3)c(-c3ccccc3)[nH]2)cc1 | -17.83%
23 | O=C(NC1CCCCC1)C(c1cccs1)N(CCc1ccccc1)C(=O)c1ccco1 (stereo unspecified) | -24.45%
24 | CC(Oc1ccc(NC(=O)c2cccs2)cc1)C(=O)c1ccc(Cl)cc1 (stereo unspecified) | 19.15%

Row | SMILES | Inhibition
25 | COc1ccc(CNC(=O)c2cc3c(=O)n4ccccc4nc3n(CCc3ccccc3)c2=N)cc1 | 20.87%
26 | Brc1ccc(Nc2nc3ccccc3nc2Nc2ccc(Br)cc2)cc1 | -31.05%
27 | O=C(NC1CCN(Cc2ccccc2)CC1)c1cc(C(=O)NC2CCN(Cc3ccccc3)CC2)cc(C(=O)NC2CCN(Cc3ccccc3)CC2)c1 | 0.9409%
28 | COc1ccc(CCn2c(=N)c(C(=O)NCc3cccnc3)cc3c(=O)n4cccc(C)c4nc32)cc1 | 0.9407%
29 | COc1ccc(-c2cn3c(C(=O)Nc4ccccc4Cl)c(-c4ccccc4)c4c3n2CCCC4)cc1 | 34.31%
30 | Cl.Cn1c(=O)n(C)c2cc(CNCCNc3ccnc4cc(Cl)ccc34)ccc21 | 20.67%
31 | Cc1cc(Nc2ccc(OCc3ccccc3)cc2)nc2cc(O)ccc12 | -18.86%
32 | CCN(CC)CCNc1ccnc2cc3ccccc3cc12.O=P(O)(O)O | 3.908%
33 | CCOc1ccc2nc(C)cc(Nc3ccc(N(C)C)cc3)c2c1.Cl | -13.24%
34 | COc1ccc(Nc2cc(C)nc(NCc3ccccc3)n2)cc1 | -1.126%
35 | N=c1c2ccccc2nnn1-c1cccc(C(F)(F)F)c1 | 6.889%
36 | COc1cc(-c2nc(-c3ccc(Sc4ccccc4)cc3)c(-c3ccccc3)[nH]2)cc(OC)c1O | -39.67%
37 | COc1ccc(C=C2SC(Nc3ccc(F)cc3)=NC2=O)c(OC)c1 | 36.03%
38 | O=C1c2ccc3c4c(ccc(c24)C(=O)N1CCCCO)C(=O)N(CCCCO)C3=O | 79.86%
39 | O=C(Nc1ccc(-c2nc3cc(NC(=O)c4ccc(Cl)cc4)ccc3[nH]2)cc1)c1ccc(Cl)cc1 | -6.932%
40 | OC(Cn1nnc2ccccc21)Cn1c2ccc(Br)cc2c2cc(Br)ccc21 (stereo unspecified) | -11.24%
41 | Cc1ccccc1OCCSc1nc2ccc(NC(=O)c3cccs3)cc2s1 | -27.25%
42 | CCOC(=O)c1cnc2ccc(OC)cc2c1Nc1ccc(N2CCN(C)CC2)cc1 | -40.43%
43 | COc1ccccc1C(=O)ON=C(N)Cc1cccc2ccccc12 | -19.53%
44 | COc1ccc(C(=O)C(CCC(CNC(C)(C)C)C(=O)c2ccc(OC)cc2)CNC(C)(C)C)cc1 (stereo unspecified) | -20.25%
45 | CCOc1cc2c(cc1OCC)C(c1cc(Cl)ccc1O)NCC2 (stereo unspecified) | -2.297%
46 | CCN(CC)CCCNc1ccnc2cc3ccccc3cc12 | -47.31%
47 | CN1C=C(c2ccc3ccccc3n2)C(c2c[nH]c3ccccc23)c2ccccc21 (stereo unspecified) | -24.69%
48 | Cc1ccc(-c2nc3ccccc3o2)cc1NCc1cc(Cc2ccccc2)ccc1O | 20.55%

Row | SMILES | Inhibition
49 | OC(CNC1CCCCC1)Cn1c2ccc(I)cc2c2cc(I)ccc21 (stereo unspecified) | 25.2%
50 | COc1ccc(C(O)(CCC(C)C)C(CN2CCOCC2)c2ccc(Cl)cc2)cc1.Cl (stereo unspecified) | -51.44%
51 | CCCOCc1cc(CN2CCN(c3cccc(Cl)c3)CC2)c(O)c2ncccc12 | 58.2%
52 | O=C(Cc1ccccc1)NC(c1ccc(Cl)cc1)c1c(O)ccc2ccccc12 (stereo unspecified) | -13.28%
53 | COc1cc(CNCCc2ccc(Cl)cc2)cc(OC)c1O | 5.38%
54 | c1ccc(CNc2nc(Nc3ccccc3)nc3ccccc23)cc1 | 87.13%
55 | COc1ccc(C(=O)NC(c2ccccc2Cl)c2cc(Cl)c3cccnc3c2O)cc1 (stereo unspecified) | 32.62%
56 | Cc1cccc(N2C(=O)C3C(C2=O)C2(c4ccccc4)C(=O)C3(c3ccccc3)C(c3ccc4c(c3)OCO4)=C2c2ccc3c(c2)OCO3)c1 (stereo unspecified) | 1.02%
57 | Oc1ccc(Br)cc1CN1CCN(Cc2ccc(Cl)cc2)CC1 | -16.25%
58 | Cc1ccc(F)cc1NC(=O)c1cc(Cl)ccc1Nc1ccccc1 | -36.44%
59 | CCOc1ccc2nc(C)cc(Nc3ccc(Br)cc3)c2c1 | -4.208%
60 | COc1cc2c3cc1Oc1c(OC)c(OC)cc4c1C(Cc1ccc(O)c(c1)Oc1ccc(cc1)CC3N(C)CC2)N(C)CC4.Cl (stereo unspecified) | -14.29%
61 | CCCCCCc1cc2cc(-c3nc4ccccc4[nH]3)c(=Nc3ccccc3C)oc2cc1O | -3.461%
62 | CCOc1c(Br)cc(C2C(C(=O)OC)=CN(C)C=C2C(=O)OC)cc1OC | -4.752%
63 | COc1ccc2sc(N(Cc3cccnc3)C(=O)c3ccc(C#N)cc3)nc2c1 | 39.49%
64 | CC1CC2=C(CC1CNCCCN(C)C)C(C)(C)CCC2 (stereo unspecified) | 42.26%
65 | CN(C)c1ccc(N=Cc2ccc(N3CCOCC3)cc2)cc1 | -8.003%
66 | CCOC(=O)c1cnc2ccc(OC)cc2c1NCc1ccccc1 | 13.76%
67 | CCOC(=O)C1=CN(C)C=C(C(=O)OCC)C1c1cc(Br)c(OCC)c(OC)c1 | -2.299%
68 | CC(C)(C)c1ccc(C2CC3=Nc4ccccc4N(C(=O)c4ccccc4Cl)C(c4ccc(F)cc4)C3=C(O)C2)cc1 (stereo unspecified) | 20.41%
69 | CN1CCN(c2nc(Nc3ccc(O)cc3)nc3ccccc23)CC1.Cl | -22.12%
70 | CCOC(=O)c1c[nH]c2c(CC)cccc2c1=O | 0.8782%
71 | CCCCc1c(CCC)c(=N)c2ccccc2n1C.I | 11.94%
